# Measurements: patent US12653795B1, “Bupropion as a modulator of drug activity” (ANTECIP BIOVENTURES II LLC, priority 2022, dated 2026)
# Experiment: Pharmacokinetics after administration of the subject combination
# Conditions: co-administered with bupropion; dextromethorphan 30 to 60 mg, bupropion 75 to 150 mg
# Excerpt: In the subject combination, bupropion inhibits the metabolism of dextromethorphan via CYP2D6.
smiles,measurement,value
COc1ccc2c(c1)[C@]13CCCC[C@@H]1[C@H](C2)N(C)CC3 [dextromethorphan],pharmacokinetics at steady state (dose proportionality of AUC and Cmax),nonlinear pharmacokinetics
